Experimental data from ChEMBL document CHEMBL1153174, “Structure-activity relationships of N-substituted ligands for the alpha7 nicotinic acetylcholine receptor” (Bioorg Med Chem Lett, 2010).
Activity calls are given as the source filed them. The calls are words filed in the database; no cut-off is given here.

Key:
[1] = biological target: T1, Neuronal acetylcholine receptor subunit alpha-7 (Homo sapiens, UniProt P36544); assay: Agonist activity at human recombinant alpha7 nAChR expressed in xenopus oocytes assessed as induction of Ca2+ current; assay type: functional, cell-based, Oocyte
T1 sequence (P36544 whole entry): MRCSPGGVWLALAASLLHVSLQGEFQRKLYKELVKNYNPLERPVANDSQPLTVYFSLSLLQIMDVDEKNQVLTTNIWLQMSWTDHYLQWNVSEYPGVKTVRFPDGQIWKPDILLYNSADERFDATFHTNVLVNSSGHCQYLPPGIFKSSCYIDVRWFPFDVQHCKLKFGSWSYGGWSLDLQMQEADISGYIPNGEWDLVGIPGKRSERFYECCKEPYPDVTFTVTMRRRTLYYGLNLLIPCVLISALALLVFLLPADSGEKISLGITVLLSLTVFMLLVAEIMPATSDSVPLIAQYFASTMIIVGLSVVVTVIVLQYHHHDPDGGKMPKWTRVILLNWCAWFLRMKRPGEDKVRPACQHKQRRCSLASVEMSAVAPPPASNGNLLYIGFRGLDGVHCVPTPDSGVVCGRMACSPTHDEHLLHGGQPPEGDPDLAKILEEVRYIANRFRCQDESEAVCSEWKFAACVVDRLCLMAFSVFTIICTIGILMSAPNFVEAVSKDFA

[2] = biological target: Neuronal acetylcholine receptor subunit alpha-7 (Rattus norvegicus, UniProt Q05941); assay: Displacement of [3H]585539 from alpha7 nAChR in rat brain; assay type: tissue-based
Sequence of Neuronal acetylcholine receptor subunit alpha-7 (Rattus norvegicus, UniProt Q05941) (Q05941 whole entry): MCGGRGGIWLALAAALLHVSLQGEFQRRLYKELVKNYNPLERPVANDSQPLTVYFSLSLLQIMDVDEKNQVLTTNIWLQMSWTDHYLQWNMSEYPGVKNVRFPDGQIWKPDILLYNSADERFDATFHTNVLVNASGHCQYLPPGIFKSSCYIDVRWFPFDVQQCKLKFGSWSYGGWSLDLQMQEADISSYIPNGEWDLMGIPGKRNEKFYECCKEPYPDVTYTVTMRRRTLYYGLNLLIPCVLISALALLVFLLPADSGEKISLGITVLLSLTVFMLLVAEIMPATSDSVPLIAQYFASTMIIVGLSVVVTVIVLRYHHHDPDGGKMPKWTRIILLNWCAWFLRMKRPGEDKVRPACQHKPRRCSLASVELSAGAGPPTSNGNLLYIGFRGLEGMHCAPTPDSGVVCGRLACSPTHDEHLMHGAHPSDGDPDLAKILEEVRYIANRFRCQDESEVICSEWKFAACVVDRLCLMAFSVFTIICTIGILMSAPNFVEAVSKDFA

[3] = biological target: T1, Neuronal acetylcholine receptor subunit alpha-7; assay: Agonist activity at human recombinant alpha7 nAChR expressed in xenopus oocytes assessed as induction of Ca2+ current relative to acetylcholine; assay type: functional, cell-based; details: Oocyte
[4] = biological target: Neuronal acetylcholine receptor; alpha4/beta2 (Rattus norvegicus) (UniProt P09483+P12390); assay: Displacement of [3H]cytisine from rat brain alpha4beta2 nAChR up to 10 uM
[5] = biological target: Neuronal acetylcholine receptor; alpha4/beta2 (Homo sapiens, UniProt P17787+P43681); assay: Inhibition of alpha4beta2 nAChR; assay type: protein-complex assay
Sequence of Neuronal acetylcholine receptor; alpha4/beta2 (P17787 whole entry): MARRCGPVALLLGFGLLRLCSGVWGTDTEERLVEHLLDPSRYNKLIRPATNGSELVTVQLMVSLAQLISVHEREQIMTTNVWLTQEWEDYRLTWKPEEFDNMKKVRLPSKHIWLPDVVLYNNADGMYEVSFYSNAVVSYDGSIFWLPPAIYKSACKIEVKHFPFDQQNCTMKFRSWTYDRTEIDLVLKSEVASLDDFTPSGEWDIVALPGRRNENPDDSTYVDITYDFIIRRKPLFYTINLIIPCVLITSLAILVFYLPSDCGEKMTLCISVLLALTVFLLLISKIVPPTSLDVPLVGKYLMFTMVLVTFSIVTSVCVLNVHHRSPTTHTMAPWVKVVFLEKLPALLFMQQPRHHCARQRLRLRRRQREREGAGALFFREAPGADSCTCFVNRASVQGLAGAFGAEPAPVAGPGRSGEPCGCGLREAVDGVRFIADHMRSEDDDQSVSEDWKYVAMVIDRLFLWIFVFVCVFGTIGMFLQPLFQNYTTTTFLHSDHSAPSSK
Sequence of Neuronal acetylcholine receptor; alpha4/beta2 (P43681 whole entry): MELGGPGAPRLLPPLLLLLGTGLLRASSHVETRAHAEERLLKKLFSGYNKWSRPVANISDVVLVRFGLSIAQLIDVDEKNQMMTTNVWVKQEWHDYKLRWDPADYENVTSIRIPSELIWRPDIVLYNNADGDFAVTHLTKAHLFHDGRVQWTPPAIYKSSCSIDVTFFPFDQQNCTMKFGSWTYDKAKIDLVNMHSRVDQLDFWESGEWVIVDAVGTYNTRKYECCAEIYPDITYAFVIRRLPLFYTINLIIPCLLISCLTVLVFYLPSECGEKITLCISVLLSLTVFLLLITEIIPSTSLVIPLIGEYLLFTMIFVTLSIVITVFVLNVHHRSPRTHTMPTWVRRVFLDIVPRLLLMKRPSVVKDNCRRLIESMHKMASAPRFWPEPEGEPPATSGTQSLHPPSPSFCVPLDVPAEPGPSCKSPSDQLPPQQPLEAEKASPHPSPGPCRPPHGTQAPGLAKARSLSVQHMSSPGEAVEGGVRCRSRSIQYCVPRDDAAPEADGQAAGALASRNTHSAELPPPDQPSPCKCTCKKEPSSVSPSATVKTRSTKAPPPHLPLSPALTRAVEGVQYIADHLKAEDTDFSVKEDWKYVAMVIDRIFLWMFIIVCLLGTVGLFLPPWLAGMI

[6] = biological target: Neuronal acetylcholine receptor; alpha3/beta4 (Homo sapiens, UniProt P30926+P32297); assay: Inhibition of alpha3beta4 nAChR
Sequence of Neuronal acetylcholine receptor; alpha3/beta4 (P30926 whole entry): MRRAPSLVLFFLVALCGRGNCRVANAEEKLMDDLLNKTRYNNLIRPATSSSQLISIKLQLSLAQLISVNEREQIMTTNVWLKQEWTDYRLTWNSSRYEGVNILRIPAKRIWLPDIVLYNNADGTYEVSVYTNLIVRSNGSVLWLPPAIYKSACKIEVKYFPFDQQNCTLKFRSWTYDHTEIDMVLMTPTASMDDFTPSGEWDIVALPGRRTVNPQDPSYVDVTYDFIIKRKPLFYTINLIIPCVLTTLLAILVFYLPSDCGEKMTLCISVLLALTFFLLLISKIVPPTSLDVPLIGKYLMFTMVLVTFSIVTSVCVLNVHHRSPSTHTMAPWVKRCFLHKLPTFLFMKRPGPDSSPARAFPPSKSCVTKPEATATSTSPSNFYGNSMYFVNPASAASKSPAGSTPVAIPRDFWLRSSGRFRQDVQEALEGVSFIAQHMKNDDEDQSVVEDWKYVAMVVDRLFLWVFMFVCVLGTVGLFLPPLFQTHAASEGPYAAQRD
Sequence of Neuronal acetylcholine receptor; alpha3/beta4 (P32297 whole entry): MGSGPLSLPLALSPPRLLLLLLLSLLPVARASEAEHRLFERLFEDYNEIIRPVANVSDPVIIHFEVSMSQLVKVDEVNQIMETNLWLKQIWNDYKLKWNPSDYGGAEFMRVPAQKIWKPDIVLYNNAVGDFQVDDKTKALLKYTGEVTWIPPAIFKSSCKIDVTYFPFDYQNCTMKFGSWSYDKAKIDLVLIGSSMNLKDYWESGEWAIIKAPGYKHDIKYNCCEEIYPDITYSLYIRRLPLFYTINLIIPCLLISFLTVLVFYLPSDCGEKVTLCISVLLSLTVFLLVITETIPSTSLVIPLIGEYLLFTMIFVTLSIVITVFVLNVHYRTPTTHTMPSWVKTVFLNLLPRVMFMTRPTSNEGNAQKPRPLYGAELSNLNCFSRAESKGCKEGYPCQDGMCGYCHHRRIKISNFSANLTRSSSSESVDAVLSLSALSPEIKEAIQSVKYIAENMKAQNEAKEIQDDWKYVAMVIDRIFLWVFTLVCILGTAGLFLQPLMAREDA

SMILES	Ki [2] [µM]	Activity [4]	also measured
Clc1ccc(CN2C[C@@H]3CN(c4ccc(-c5ccccc5)nn4)C[C@@H]3C2)cn1	0.102	inactive	EC50 [1]: 11.8 µM; Activity [3]: 13%
c1ccc(-c2ccc(N3C[C@H]4CN(Cc5ccncc5)C[C@H]4C3)nn2)cc1	0.541	inactive	
CN1C[C@@H]2CN(c3ccc(-c4ccccc4)nn3)C[C@@H]2[C@@H]1COc1cccnc1	0.32		EC50 [1]: > 100 µM
CNC1CCN(c2ccc(-c3ccccc3)nn2)C1 (stereo not drawn)	> 0.01		
c1ccc(-c2ccc(N3C[C@H]4CN(Cc5ccccn5)C[C@H]4C3)nn2)cc1	0.533	inactive	
CN(Cc1cccnc1)C1CCN(c2ccc(-c3ccccc3)nn2)C1 (racemic)	> 10	inactive	
CN1C[C@@H]2CN(c3ccc(-c4ccccc4)nn3)C[C@@H]2[C@H]1COc1cccnc1	0.042		EC50 [1]: 12.9 µM; Activity [3]: 44%
CN(Cc1ccccn1)C1CCN(c2ccc(-c3ccccc3)nn2)C1 (racemic)	> 10	inactive	
CN1C[C@@H]2CN(c3ccc(-c4ccccc4)nn3)C[C@@H]2C1			Ki [5]: > 100 µM; Ki [6]: 4.7 µM
CCN(C)C1CCN(c2ccc(-c3ccccc3)nn2)C1 (racemic)	0.746	inactive	
CN(Cc1ccccc1)C1CCN(c2ccc(-c3ccccc3)nn2)C1 (racemic)	> 10	inactive	
CN(C)C1CCN(c2ccc(-c3ccccc3)nn2)C1 (racemic)	0.478	inactive	
c1ccc(CN2C[C@@H]3CN(c4ccc(-c5ccccc5)nn4)C[C@@H]3C2)cc1	0.476	inactive	
CN(Cc1ccc(Cl)nc1)C1CCN(c2ccc(-c3ccccc3)nn2)C1 (racemic)	> 0.01	inactive	
CN(Cc1ccncc1)C1CCN(c2ccc(-c3ccccc3)nn2)C1 (racemic)	> 0.01	inactive	
CCN1C[C@@H]2CN(c3ccc(-c4ccccc4)nn3)C[C@@H]2C1		inactive	
c1ccc(-c2ccc(N3C[C@H]4CN(Cc5cccnc5)C[C@H]4C3)nn2)cc1	0.0036	inactive	EC50 [1]: 9.36 µM; Activity [3]: 84%
Clc1ccc(C2CC3CCC2N3)cn1 (stereo not drawn)			INH [5]: 0.1 nM
